Patent US20220081444A1, “6,7-DIHYDRO-4H-PYRAZOLO[1,5-A]PYRAZINE INDOLE-2-CARBOXAMIDES ACTIVE AGAINST THE HEPATITIS B VIRUS (HBV)” (AiCuris GmbH & Co. KG, priority 2018, published 2022)

system: HBV; settings: Hepatitis B virus, HePAD38, 144 h, read-out: Cell Activity (EC50)

Compound	EC50 [nM]
O=C(Nc1cc2n(n1)CCN(C(=O)c1cc3c(Cl)c(F)ccc3[nH]1)C2)C1CCOC1 (stereo not drawn) [Example 20, N-[5-(4-chloro-5-fluoro-1H-indole-2-carbonyl)-4H,5H,6H,7H-pyrazolo[1,5-a]pyrazin-2-yl]oxolane-3-carboxamide]	< 1000
O=C(c1cc2ccccc2[nH]1)N1CCn2nc(NS(=O)(=O)C3CCCCC3)cc2C1 [Example 51, N-[5-(1H-indole-2-carbonyl)-4H,5H,6H,7H-pyrazolo[1,5-a]pyrazin-2-yl]cyclohexanesulfonamide]	< 1000
O=C(Nc1cc2n(n1)CCN(C(=O)c1cc3ccccc3[nH]1)C2)C1CCOCC1 [Example 18, N-[5-(1H-indole-2-carbonyl)-4H,5H,6H,7H-pyrazolo[1,5-a]pyrazin-2-yl]oxane-4-carboxamide]	< 1000
CN1CC(C(=O)Nc2cc3n(n2)CCN(C(=O)c2cc4ccccc4[nH]2)C3)C1 [Example 70, N-[5-(1H-indole-2-carbonyl)-4H,5H,6H,7H-pyrazolo[1,5-a]pyrazin-2-yl]-1-methylazetidine-3-carboxamide]	1000 to 10000
O=C(Nc1cc2n(n1)CCN(C(=O)c1cc3ccccc3[nH]1)C2)C1CCn2ccnc2C1 (stereo not drawn) [Example 68, N-[5-(1H-indole-2-carbonyl)-4H,5H,6H,7H-pyrazolo[1,5-a]pyrazin-2-yl]-5H,6H,7H,8H-imidazo[1,2-a]pyridine-7-carboxamide]	< 1000
Cc1nc(S(=O)(=O)Nc2cc3n(n2)CCN(C(=O)c2cc4ccccc4[nH]2)C3)cn1C [Example 48, [5-(1H-indole-2-carbonyl)-4H,5H,6H,7H-pyrazolo[1,5-a]pyrazin-2-yl]-1,2-dimethyl-1H-imidazole-4-sulfonamide]	1000 to 10000
O=C(c1cc2ccccc2[nH]1)N1CCn2nc(NS(=O)(=O)Cc3ccccc3)cc2C1 [Example 43, N-[5-(1H-indole-2-carbonyl)-4H,5H,6H,7H-pyrazolo[1,5-a]pyrazin-2-yl]-1-phenylmethanesulfonamide]	< 1000
CCc1cccc2[nH]c(C(=O)N3CCn4nc(NCC5(O)CCC5)cc4C3)cc12 [Example 93, 1-({[5-(4-ethyl-1H-indole-2-carbonyl)-4H,5H,6H,7H-pyrazolo[1,5-a]pyrazin-2-yl]amino}methyl)cyclobutan-1-ol]	< 1000
CC(C)(C)OC(=O)N1CC(C(=O)Nc2cc3n(n2)CCN(C(=O)c2cc4ccccc4[nH]2)C3)C1 [Example 7, tert-butyl 3-{[5-(1H-indole-2-carbonyl)-4H,5H,6H,7H-pyrazolo[1,5-a]pyrazin-2-yl]carbamoyl}azetidine-1-carboxylate]	< 1000
COC(=O)N1CCC(C(=O)Nc2cc3n(n2)CCN(C(=O)c2cc4ccccc4[nH]2)C3)CC1 [Example 58, Methyl 4-{[5-(1H-indole-2-carbonyl)-4H,5H,6H,7H-pyrazolo[1,5-a]pyrazin-2-yl]carbamoyl}piperidine-1-carboxylate]	< 1000
O=C(c1cc2c(Cl)cccc2[nH]1)N1CCn2nc(NS(=O)(=O)C3CC3)cc2C1 [Example 37, N-[5-(4-chloro-1H-indole-2-carbonyl)-4H,5H,6H,7H-pyrazolo[1,5-a]pyrazin-2-yl]cyclopropanesulfonamide]	< 1000
CC(=O)N1CC(C(=O)Nc2cc3n(n2)CCN(C(=O)c2cc4ccccc4[nH]2)C3)C1 [Example 66, 1-acetyl-N-[5-(1H-indole-2-carbonyl)-4H,5H,6H,7H-pyrazolo[1,5-a]pyrazin-2-yl]azetidine-3-carboxamide]	< 1000
O=C(c1cc2ccccc2[nH]1)N1CCn2nc(N[C@H]3CC[C@H](O)CC3)cc2C1 [Example 2, (1r,4r)-4-{[5-(1H-indole-2-carbonyl)-4H,5H,6H,7H-pyrazolo[1,5-a]pyrazin-2-yl]amino}cyclohexan-1-ol]	< 1000
NC(=O)N1CCC(C(=O)Nc2cc3n(n2)CCN(C(=O)c2cc4ccccc4[nH]2)C3)CC1 [Example 65, N4-[5-(1H-indole-2-carbonyl)-4H,5H,6H,7H-pyrazolo[1,5-a]pyrazin-2-yl]piperidine-1,4-dicarboxamide]	< 1000
O=C(Nc1cc2n(n1)CCN(C(=O)c1cc3ccccc3[nH]1)C2)C1CCN(C2CCOCC2)CC1 [Example 69, N-[5-(1H-indole-2-carbonyl)-4H,5H,6H,7H-pyrazolo[1,5-a]pyrazin-2-yl]-1-(oxan-4-yl)piperidine-4-carboxamide]	< 1000
O=C(c1cc2ccccc2[nH]1)N1CCn2nc(NC3CCOC3)cc2C1 (stereo not drawn) [Example 1, 5-(1H-indole-2-carbonyl)-N-(oxolan-3-yl)-4H,5H,6H,7H-pyrazolo[1,5-a]pyrazin-2-amine]	1000 to 10000
CCc1cccc2[nH]c(C(=O)N3CCn4nc(NC(=O)C5CCOC5)cc4C3)cc12 (stereo not drawn) [Example 24, N-[5-(4-ethyl-1H-indole-2-carbonyl)-4H,5H,6H,7H-pyrazolo[1,5-a]pyrazin-2-yl]oxolane-3-carboxamide]	< 1000
O=C(c1cc2ccccc2[nH]1)N1CCn2nc(NCC3CCOCC3)cc2C1 [Example 15, 5-(1H-indole-2-carbonyl)-N-[(oxan-4-yl)methyl]-4H,5H,6H,7H-pyrazolo[1,5-a]pyrazin-2-amine]	< 1000

Compound	EC50 [nM]
CC1Cn2nc(NCC3CCOC3)cc2CN1C(=O)c1cc2c(Cl)cccc2[nH]1 (stereo not drawn) [Example 13, 5-(4-chloro-1H-indole-2-carbonyl)-6-methyl-N-[(oxolan-3-yl)methyl]-4H,5H,6H,7H-pyrazolo[1,5-a]pyrazin-2-amine]	< 1000
CS(=O)(=O)Nc1cc2n(n1)CCN(C(=O)c1cc3ccccc3[nH]1)C2 [Example 8, N-[5-(1H-indole-2-carbonyl)-4H,5H,6H,7H-pyrazolo[1,5-a]pyrazin-2-yl]methanesulfonamide]	< 1000
CCS(=O)(=O)Nc1cc2n(n1)CCN(C(=O)c1cc3ccccc3[nH]1)C2 [Example 45, N-[5-(1H-indole-2-carbonyl)-4H,5H,6H,7H-pyrazolo[1,5-a]pyrazin-2-yl]ethane-1-sulfonamide]	< 1000
CC1Cn2nc(NCC3CCOC3)cc2CN1C(=O)c1cc2ccccc2[nH]1 (stereo not drawn) [Example 12, 5-(1H-indole-2-carbonyl)-6-methyl-N-[(oxolan-3-yl)methyl]-4H,5H,6H,7H-pyrazolo[1,5-a]pyrazin-2-amine]	< 1000
O=C(c1cc2c(Cl)cc(F)cc2[nH]1)N1CCn2nc(NS(=O)(=O)C3CC3)cc2C1 [Example 38, N-[5-(4-chloro-6-fluoro-1H-indole-2-carbonyl)-4H,5H,6H,7H-pyrazolo[1,5-a]pyrazin-2-yl]cyclopropanesulfonamide]	< 1000
CC1Cn2nc(NC(=O)C3CCOC3)cc2CN1C(=O)c1cc2ccccc2[nH]1 (stereo not drawn) [Example 10, N-[5-(1H-indole-2-carbonyl)-6-methyl-4H,5H, 6H,7H-pyrazolo[1,5-a]pyrazin-2-yl]oxolane-3-carboxamide]	< 1000
O=C(Nc1cc2n(n1)CCN(C(=O)c1cc3c(Cl)cccc3[nH]1)C2)C1CCOC1 (stereo not drawn) [Example 19, N-[5-(4-chloro-1H-indole-2-carbonyl)-4H,5H,6H,7H-pyrazolo[1,5-a]pyrazin-2-yl]oxolane-3-carboxamide]	< 1000
CC1Cn2nc(NC(=O)C3CCOC3)cc2CN1C(=O)c1cc2c(Cl)cccc2[nH]1 (stereo not drawn) [Example 11, N-[5-(4-chloro-1H-indole-2-carbonyl)-6-methyl-4H,5H,6H,7H-pyrazolo[1,5-a]pyrazin-2-yl]oxolane-3-carboxamide]	< 1000
O=C(c1cc2c(Cl)cccc2[nH]1)N1CCn2nc(NCC3CCOC3)cc2C1 (stereo not drawn) [Example 26, 5-(4-chloro-1H-indole-2-carbonyl)-N-[(oxolan-3-yl)methyl]-4H,5H,6H,7H-pyrazolo[1,5-a]pyrazin-2-amine]	< 1000
O=C(Nc1cc2n(n1)CCN(C(=O)c1cc3ccccc3[nH]1)C2)C1CCN(C2CC2)CC1 [Example 74, 1-cyclopropyl-N-[5-(1H-indole-2-carbonyl)-4H,5H,6H,7H-pyrazolo[1,5-a]pyrazin-2-yl]piperidine-4-carboxamide]	< 1000
Nc1cc2n(n1)CCN(C(=O)c1cc3c(Cl)cccc3[nH]1)C2 [Example 32, 5-(4-chloro-1H-indole-2-carbonyl)-4H,5H,6H,7H-pyrazolo[1,5-a]pyrazin-2-amine]	< 1000
CC(=O)Nc1cc2n(n1)CCN(C(=O)c1cc3ccccc3[nH]1)C2 [Example 14, N-[5-(1H-indole-2-carbonyl)-4H,5H,6H,7H-pyrazolo[1,5-a]pyrazin-2-yl]acetamide]	< 1000
CN1CCC(C(=O)Nc2cc3n(n2)CCN(C(=O)c2cc4ccccc4[nH]2)C3)CC1C(F)(F)F (stereo not drawn) [Example 81, N-[5-(1H-indole-2-carbonyl)-4H,5H,6H,7H-pyrazolo[1,5-a]pyrazin-2-yl]-1-methyl-2-(trifluoromethyl)piperidine-4-carboxamide]	< 1000
O=C(c1cc2c(F)cc(F)cc2[nH]1)N1CCn2nc(NS(=O)(=O)C3CC3)cc2C1 [Example 35, N-[5-(4,6-difluoro-1H-indole-2-carbonyl)-4H,5H,6H,7H-pyrazolo[1,5-a]pyrazin-2-yl]cyclopropanesulfonamide]	< 1000
O=C(c1cc2ccccc2[nH]1)N1CCn2nc(NCc3ccccc3)cc2C1 [Example 56, N-benzyl-5-(1H-indole-2-carbonyl)-4H,5H,6H,7H-pyrazolo[1,5-a]pyrazin-2-amine]	1000 to 10000
CCc1cccc2[nH]c(C(=O)N3CCn4nc(NS(=O)(=O)C5CC5)cc4C3)cc12 [Example 40, N-[5-(4-ethyl-1H-indole-2-carbonyl)-4H,5H,6H,7H-pyrazolo[1,5-a]pyrazin-2-yl]cyclopropanesulfonamide]	< 1000
CS(=O)(=O)N1CCC(C(=O)Nc2cc3n(n2)CCN(C(=O)c2cc4ccccc4[nH]2)C3)CC1 [Example 64, N-[5-(1H-indole-2-carbonyl)-4H,5H,6H,7H-pyrazolo[1,5-a]pyrazin-2-yl]-1-methanesulfonylpiperidine-4-carboxamide]	< 1000
O=C(c1cc2c(Cl)c(F)ccc2[nH]1)N1CCn2nc(NS(=O)(=O)C3CC3)cc2C1 [Example 36, N-[5-(4-chloro-5-fluoro-1H-indole-2-carbonyl)-4H,5H,6H,7H-pyrazolo[1,5-a]pyrazin-2-yl]cyclopropanesulfonamide]	< 1000
